Data set [1] has as its system UCI101 ovarian cancer cells. As to the kind of experiment: Alamar Blue cell growth inhibition, UCI101. It counts as cell-based. The gist of the method: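 UCI101 cells at 50% confluence treated 48 h in triplicate with compound (0–10 μM series) or 0.1% DMSO vehicle as 100% control. Alamar Blue added at 1/10 volume for 2 h; absorbance read at 570 and 600 nm, percent growth inhibition from the manufacturer's formula.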

Data set [2] can be described thus: preliminary toxicity and serum conversion of 5b. It counts as in vivo, mice. The source says:
We next tested whether 5b could be converted into stilbene 4a in circulation. […] The in vivo efficacy of 5b and 5c was compared to stilbene 4a in a pilot study using 5 mice in each group.

In data set [3] the test system is UCI101 ovarian cancer cells (xenograft). The experiment in a line: UCI101 xenograft in nude mice. Format: in vivo. The method, then: (§1) (a) In vitro sensitivity of UCI101 cells toward three potential stilbene prodrugs, 5a-c, was tested in 96-well plates using Alamar Blue™ assays to determine cell growth inhibition. […] (b) 5b induces cell cycle change and apoptosis in UCI101 cells. Cells were incubated with 5b at 1, 3, 10 μM for 16 hours followed by PI staining and flow cytometry analysis. A subG0/1 population, representing apoptotic cells, appeared along with a decrease of the G1/G2 ratio after cells were treated with 3 μM 5b. Higher concentration (10 μM) of 5b completely killed cells, as was the case with stilbene 4a at 100 μM. (c) Cells treated with stilbene 4a and 5b were stained with phospho-histone 3B, a mitotic marker. The positive signals of phospho-histone 3B were shown in green and nuclei were stained with DAPI in blue. […] (d) In vivo efficacy of 5b compared with stilbene 4a. Nude mice were injected with UCI101 ovarian cancer cells and treated with 7 doses of 5b,c or stilbene 4a every 2-3 days. Tumor volume was calculated and plotted against days.
We next tested whether 5b could be converted into stilbene 4a in circulation. […] Blood was collected at 20, 60 and 240 min after injection for spot check of stilbene 4a level in serum. […] The in vivo efficacy of 5b and 5c was compared to stilbene 4a in a pilot study using 5 mice in each group.

Data set [4] relates to UCI101 cells. As to the kind of experiment: phospho-histone 3B mitotic marker staining. Format: cell-based. The method, then: as §1
The in vitro efficacy of these three compounds was tested in UCI101 cells in 96-well plate format and stained with Alamar blue™, The growth suppression was calculated as was done similarly to other test compounds. […] A dose response was then performed with various concentrations of 5b in vitro. […]

The subject of the next data set is MDA-MB231 cells. The experiment in a line: immunofluorescent staining of tubulin, MDA-MB231. It counts as cell-based. The conditions noted are these: CA4 10 nM, stilbene 4a 100 nM, vincristine 100 nM, 5b 3 μM; 16 hours. The source says:
Nuclei were stained with 4′,6-diamidino-2-phenylindole (DAPI). Control cells show the reticular pattern of the microtubule network.

Data set [5] has as its system UCI101 cells. The experiment in a line: immunofluorescent staining of tubulin, UCI101. The conditions noted are these: CA4 10 nM, stilbene 4a 100 nM, 5b 3 μM; 16 hours. It counts as cell-based. An excerpt: Nuclei were stained with DAPI.
For data set [6], the system named is UCI101 cells. The experiment in a line: cell cycle analysis (propidium iodide, FACScan), UCI101. It counts as cell-based. The method, then: Cells were stained with propidium iodide and analyzed with FACScan. Both 5b at 3 μM and stilbene 4a at 30 nM induce a subG0/1 population that represents the dead population. At higher concentrations of either compound, nearly all cells are dead.
as §1, with “Cells were incubated with 5b at 1, 3, 10 μM for 16 hours followed by PI staining and flow cytometry analysis.” left out, “Higher concentration (10 μM) of 5b completely killed cells, as was the case with stilbene 4a at 100 μM.” left out

Data set [7] can be described thus: water solubility of stilbene and carbamate prodrug (salts and free base). Format: physicochemical. The conditions noted are these: for solubility: water, 20 °C, 20° C. The method, then:
Stilbene prodrugs may be made by attaching to a stilbene derivative of interest (e.g. a stilbene derivative with anti-tumor activity), chemical groups (or moieties) that render the stilbene derivative more water soluble than before such a modification is carried out. By “water soluble” we mean that more than 20 mg compound can be fully dissolved in 1 mL of water. Further, the chemical groups that are attached to the stilbene derivative to make the derivative water soluble are labile (i.e. removable) in that, upon exposure to in vitro or in vivo hydrolyzing conditions, the chemical groups are removed or dissociated from the stilbene derivative by hydrolysis, releasing the active, anti-tumor form of the stilbene derivative. The chemical groups which are attached may themselves be biologically active, and are, at least, not biologically injurious to cells or mammals. […] As illustrated, morfolinoethyl-urea, morfolinoethyl-carbamate and triethylene glycol (TEG) groups (5a, 5b, 5c, respectively) may be used for this purpose.

For data set [8], the system named is MiaPaCa2 pancreatic cancer cells. The experiment in a line: Alamar Blue cell growth inhibition, MiaPaCa2. It counts as cell-based. The conditions noted are these: Homo sapiens, MIA PaCa-2; MiaPaCa2. The method, then:
(§2) Various cancer cell lines were grown in 96-well plates for drug sensitivity assays. Once cells achieved 50% confluence, the incubation media was changed to the same cell growth media with different concentrations of the tested compounds or vehicle alone. Cells were then incubated for 48 hours before the cell growth inhibition study. To determine the degree of cell growth inhibition, 1/10 volume of Alamar Blue™ solution was added to each well and optical density (OD) at 570 and 600 nm was determined. The percentage of growth inhibition was calculated according to the manufacturer's formula as follows: The percentage of growth is [(117216×A570)−(80586×A600)]/[(117216×A^o570)−(80586×A^o600)]×100. In this formula, A570 is the absorbance of the treated samples at 570 nm; A600 is the absorbance of the treated samples at 600 nm; A^o570 is the absorbance of the […] samples at 570 nm; and A^o600 is the absorbance of the untreated samples at 600 nm. The two constants, 117216 and 80586, are the extinction coefficients of Alamar Blue™ at 570 and 600 nm respectively. Each concentration was repeated in triplicate to minimize the error.
(§3) We first tested the cytotoxic effect of various stilbene derivatives for their in vitro efficacy of suppressing tumor cell proliferation. Cells were first plated in 96-well plates at 50% confluence and treated with 0, 0.01, 0.03, 0.1, 0.3, 1.0, 3.0, 10 μM concentrations of stilbene derivatives for 48 hours in triplicate. Alamar Blue™ reagent was added into each well at 1/10 volume and incubated for 2 hours before quantification of the absorbance at 570 and 600 nm.

The subject of data set [9] is SKOV3 ovarian cancer cells. The experiment in a line: Alamar Blue cell growth inhibition, SKOV3. It counts as cell-based. The gist of the method: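 SKOV3 cells at 50% confluence were treated 48 h with compounds, against 0.1% DMSO vehicle controls. Growth was read by Alamar Blue absorbance at 570 and 600 nm, with % growth inhibition from the manufacturer's extinction-coefficient formula. Each concentration was run in triplicate.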
A general note: The colour change of resazurin is a common sign of viable cells or microbes.

Data set [10] relates to SNU423 hepatocellular carcinoma cells. As to the kind of experiment: Alamar Blue cell growth inhibition, SNU423. Format: cell-based. The gist of the method:
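Cells at 50% confluence were treated for 48 h in triplicate with 0-10 μM compound or 0.1% DMSO vehicle. Alamar Blue was added at 1/10 volume for 2 h, and absorbance at 570 and 600 nm gave % growth via the manufacturer's extinction-coefficient formula relative to vehicle controls.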

For data set [11], the system named is MDA-MB231 breast cancer cells. As to the kind of experiment: Alamar Blue cell growth inhibition, MDA-MB231. The conditions noted are these: Homo sapiens, MDA-MB-231; MDA-MB231. Format: cell-based. Here is the method:
Cell growth was measured by Alamar Blue™ staining and the percentage of cell growth inhibition was calculated and compared with control cells that were treated with 0.1% DMSO, the vehicles for the stilbene compounds.
as §2, §3

Another data set in a line: animal toxicity of 13a. The conditions noted are these: 50 mg/kg.
Data set [12] relates to UCI101 ovarian cancer cells. As to the kind of experiment: Western blot of signal transduction events, UCI101. Format: cell-based. The gist of the method: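 UCI101 cells exposed to 0.1 μM compound for 0, 4, 8, 16 and 36 h, then harvested and analysed by Western blot. Probes covered G2-M regulators Cdc2, Cdc25c and BubR1, plus Akt phosphorylation.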
(Immunoblotting shows a protein as a band on a membrane.)

pIC50: −log10 of the molar value. Structures can show the parent of a compound that is named as a salt. Where two headings read alike, the source gives them in different places. Bounds are passed on as bounds.

As for `COc1cc(/C=C\c2ccc(OC)c(NC(=O)OCCN3CCOCC3)c2)cc(OC)c1` [5b, (Z)-{5-[2-(3,5-Dimethoxy-phenyl)-vinyl]-2-methoxy-phenyl}-carbamic acid 2-morpholin-4-yl-ethyl ester, oxalate salt], the “fold less potent than stilbene 4a” value in data set [1] (UCI101, from IC50) is recorded as “about 100”. For the same compound, the pIC50 – broadly, −log10 of the IC50, conventionally taken in molar units – in data set [1] (UCI101, estimated) was roughly 5.52. For the same compound, the tolerability result in data set [2] (100 mg/kg by intraperitoneal injection) is “tolerated well without complication”. Moreover, the persistence in circulation entry in data set [2] (100 mg/kg ip) was “stay in circulation longer than stilbene 4a”. Also, the “tumor growth versus control mice” value in data set [3] (7 doses every 2-3 days) is recorded as “only compound that achieved statistical significance compared with control mice”. Besides, the tumor growth suppression entry in data set [3] (7 doses every 2-3 days, 5 mice in each group) is reported as “about 40%”. Moreover, the mouse weight result in data set [3] (mouse, in vivo) is “did not show any significant change”. For the same compound, the “phospho-histone 3B positive cells” value in the data set on UCI101 cells [4] is “dramatic increase in positive cells”. Besides, the microtubule pattern result in the data set on MDA-MB231 cells was “completely disrupted microtubule formation”; in the data set on UCI101 cells [5] it was “partial disruption of microtubules”. The “cell death / cell cycle arrest at 1 μM” value in the data set on UCI101 cells [6] (1 μM) is listed as “not effective in inducing cell death or cell cycle arrest”. In the data set on UCI101 cells [6] (3 μM), the “cell death / cell cycle arrest at 3 μM” value is “showed a significant activity”. Moreover, the “cell death / cell cycle arrest at 10 μM” value with UCI101 cells [6] (10 μM) was “nearly all cells have committed to cell death”. Further, in the data set on UCI101 cells [6] (10 μM 5b equivalent to 100 nM stilbene 4a), the “fold less potent than stilbene 4a in vitro” value stood at 100. In addition, in the data set on UCI101 cells [6] (4a at 30, 100 nM, 5b at 1, 3, 10 μM), the “cell cycle effect” value is given as “induced similar cell cycle arrest as stilbene 4a”. In addition, the “concentration inducing a subG0/1 (dead) population” value in the data set with UCI101 cells [6] (24 hours) was 3 µM. In addition, the “water solubility (in words)” value in data set [7] is on record as “high solubility”. The solubility – broadly, the dissolved amount per volume that the medium holds – was 759000 µg/mL in [7] (HCl salt, read-out: water solubility, x HCl); less than 1000 µg/mL in data set [7] (free base, read-out: water solubility, Free base); 5900 µg/mL in [7] (oxalate salt, read-out: water solubility, x (COOH)2).
Regarding `COc1cc(/C=C\c2ccc3c(ccn3C)c2)cc(OC)c1` [13a, (Z)-5-[2-(3,5-Dimethoxy-phenyl)-vinyl]-1-methyl-1H-indole], the “relative potency / activity” value in [1] (UCI101, 48 hours) is “about equal in their potency”. For the same compound, the pIC50 in [8] was 8.00; in data set [9] (Homo sapiens, SK-OV-3, SKOV, read-out: IC50) it was 7.00 to 7.30; in data set [10] (Homo sapiens, SNU-423, 48 h, read-out: IC50 (50% growth inhibition), SNU423, 48 hours) it was 8.00; in [11], 8.00. Moreover, the “effective / active concentration” value in data set [9] (SKOV3, 48 hours) is 0.1 µM. In addition, the “effective concentration, blocking cell proliferation” value in data set [10] (SNU423, 48 hours) was found to be 0.03 µM. The neurotoxicity result in the data set “animal toxicity of 13a” is on record as “transient neurotoxicity was observed”. Moreover, in [12] (0.1 μM), the “phosphorylation of Stat3” value is on record as “more pronounced”. In data set [12] (36 hours), the “phosphorylation of Chk1” value is listed as “do not cause more phosphorylation of Chk1”. In addition, in data set [7], the “water solubility (in words)” value is “poor water solubility”.
